From ChEMBL document CHEMBL5038570, “Discovery of Novel Pyrrolo[2,3-d]pyrimidine-based Derivatives as Potent JAK/HDAC Dual Inhibitors for the Treatment of Refractory Solid Tumors” (J Med Chem, 2022) come the findings set out here.

The structures appear in SMILES notation. Calls of active or inactive are those of the source. No cut-off for these calls is given here.

Assay [1] relates to MDA-MB-231. The assay can be described thus: Induction of apoptosis in human MDA-MB-231 cells assessed as viable cells at 2.5 uM measured after 48 hrs by annexin V-FITC/propidium iodide staining based flow cytometry (reference value: 85.7%). It counts as functional. In general terms: In flow cytometry, cells or beads pass a laser one at a time.
Assay [2] has as its system MDA-MB-231. The assay can be described thus: Induction of apoptosis in human MDA-MB-231 cells assessed as viable cells at 2.5 uM measured after 48 hrs in presence of ruxolitinib by annexin V-FITC/propidium iodide staining based flow cytometry (reference value: 85.7%). Type of assay: functional.
The subject of assay [3] is 4T1. Description: Induction of apoptosis in mouse 4T1 cells assessed as viable cells at 5 uM measured after 48 hrs in presence of ruxolitinib by annexin V-FITC/propidium iodide staining based flow cytometry (reference value: 89.5%). Type of assay: functional.
Assay [4] concerns 4T1. The assay can be described thus: Induction of apoptosis in mouse 4T1 cells assessed as rly apoptotic cells at 5 uM measured after 48 hrs in presence of ruxolitinib by annexin V-FITC/propidium iodide staining based flow cytometry (reference value: 1.12%). Type of assay: functional.
Assay [5] relates to 4T1. Description: Induction of apoptosis in mouse 4T1 cells assessed as late apoptotic cells at 5 uM measured after 48 hrs in presence of ruxolitinib by annexin V-FITC/propidium iodide staining based flow cytometry (reference value: 4.99%). It counts as functional.
Assay [6] concerns 4T1. Description: Induction of apoptosis in mouse 4T1 cells assessed as necrotic cells at 5 uM measured after 48 hrs in presence of ruxolitinib by annexin V-FITC/propidium iodide staining based flow cytometry (reference value: 4.35%). Type of assay: functional.
Assay [7] has as its target T1, Tyrosine-protein kinase JAK2 (Homo sapiens, UniProt O60674). Description: Inhibition of JAK2 (unknown origin) assessed as inhibition rate at 10 uM incubated for 60 mins by microplate reader analysis relative to control.
In assay [8] the target is T1, Tyrosine-protein kinase JAK2. Description: Inhibition of JAK2 (unknown origin) preincubated for 60 mins followed by reagent A addition and measured after 60 mins in presence of ATP by using microplate reader method.
Assay [9] deals with T2, Protein deacetylase HDAC6 (Homo sapiens, UniProt Q9UBN7).
T2 sequence (Q9UBN7 whole entry): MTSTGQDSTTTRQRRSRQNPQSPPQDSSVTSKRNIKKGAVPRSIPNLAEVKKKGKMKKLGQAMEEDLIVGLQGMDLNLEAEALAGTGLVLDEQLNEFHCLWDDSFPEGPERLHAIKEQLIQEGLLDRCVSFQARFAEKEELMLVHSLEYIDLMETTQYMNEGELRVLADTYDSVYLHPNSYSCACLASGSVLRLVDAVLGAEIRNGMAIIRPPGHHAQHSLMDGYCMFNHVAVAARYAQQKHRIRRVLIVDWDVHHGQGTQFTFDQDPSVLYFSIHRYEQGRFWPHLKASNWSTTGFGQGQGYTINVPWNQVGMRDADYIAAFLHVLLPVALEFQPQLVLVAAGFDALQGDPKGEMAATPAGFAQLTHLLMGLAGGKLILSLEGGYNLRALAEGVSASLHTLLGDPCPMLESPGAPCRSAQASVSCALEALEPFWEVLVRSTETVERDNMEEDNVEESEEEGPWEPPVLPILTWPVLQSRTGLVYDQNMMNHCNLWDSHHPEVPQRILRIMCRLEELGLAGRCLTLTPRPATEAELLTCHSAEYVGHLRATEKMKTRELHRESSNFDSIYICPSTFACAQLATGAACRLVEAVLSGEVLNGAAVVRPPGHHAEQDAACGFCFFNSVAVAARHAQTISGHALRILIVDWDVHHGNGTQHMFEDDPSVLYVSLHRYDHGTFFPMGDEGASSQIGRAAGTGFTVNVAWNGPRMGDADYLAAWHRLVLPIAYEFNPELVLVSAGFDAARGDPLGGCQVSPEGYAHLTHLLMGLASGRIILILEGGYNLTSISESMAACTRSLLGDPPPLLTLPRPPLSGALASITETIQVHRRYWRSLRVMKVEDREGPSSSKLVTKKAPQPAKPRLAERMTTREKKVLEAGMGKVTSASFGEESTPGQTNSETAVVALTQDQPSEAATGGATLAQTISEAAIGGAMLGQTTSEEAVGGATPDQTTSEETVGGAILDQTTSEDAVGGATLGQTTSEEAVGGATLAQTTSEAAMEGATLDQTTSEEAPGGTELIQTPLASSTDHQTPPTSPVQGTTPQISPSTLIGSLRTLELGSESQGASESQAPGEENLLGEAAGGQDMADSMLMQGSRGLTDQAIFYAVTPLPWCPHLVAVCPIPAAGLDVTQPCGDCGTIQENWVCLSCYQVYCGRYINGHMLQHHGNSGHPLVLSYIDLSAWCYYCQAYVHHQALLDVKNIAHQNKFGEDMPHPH
Description: Inhibition of HDAC6 (unknown origin) incubated for 60 mins by microplate reader analysis.

The target in assay [10] is Histone deacetylase 1 (Homo sapiens, UniProt Q13547). The assay can be described thus: Inhibition of HDAC1 (unknown origin) incubated for 60 mins using microplate reader analysis.
Chain of Histone deacetylase 1 (Q13547 whole entry): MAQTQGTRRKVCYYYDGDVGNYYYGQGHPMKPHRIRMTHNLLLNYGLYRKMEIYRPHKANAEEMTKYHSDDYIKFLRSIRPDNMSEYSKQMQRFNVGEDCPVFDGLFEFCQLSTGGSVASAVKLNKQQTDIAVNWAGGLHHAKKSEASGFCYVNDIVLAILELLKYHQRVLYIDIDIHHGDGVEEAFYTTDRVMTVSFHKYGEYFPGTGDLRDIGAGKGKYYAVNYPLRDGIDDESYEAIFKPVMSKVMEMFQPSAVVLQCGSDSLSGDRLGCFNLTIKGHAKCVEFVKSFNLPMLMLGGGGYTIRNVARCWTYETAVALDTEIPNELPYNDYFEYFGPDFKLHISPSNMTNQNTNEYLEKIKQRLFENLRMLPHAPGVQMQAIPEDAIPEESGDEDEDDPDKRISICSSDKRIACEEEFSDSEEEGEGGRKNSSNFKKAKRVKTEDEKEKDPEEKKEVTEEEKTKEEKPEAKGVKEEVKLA
The target in assay [11] is Tyrosine-protein kinase JAK1 (Homo sapiens, UniProt P23458). Description: Inhibition of JAK1 (unknown origin) preincubated for 60 mins followed by reagent A addition and measured after 60 mins in presence of ATP by using microplate reader method.
Chain of Tyrosine-protein kinase JAK1 (P23458 whole entry): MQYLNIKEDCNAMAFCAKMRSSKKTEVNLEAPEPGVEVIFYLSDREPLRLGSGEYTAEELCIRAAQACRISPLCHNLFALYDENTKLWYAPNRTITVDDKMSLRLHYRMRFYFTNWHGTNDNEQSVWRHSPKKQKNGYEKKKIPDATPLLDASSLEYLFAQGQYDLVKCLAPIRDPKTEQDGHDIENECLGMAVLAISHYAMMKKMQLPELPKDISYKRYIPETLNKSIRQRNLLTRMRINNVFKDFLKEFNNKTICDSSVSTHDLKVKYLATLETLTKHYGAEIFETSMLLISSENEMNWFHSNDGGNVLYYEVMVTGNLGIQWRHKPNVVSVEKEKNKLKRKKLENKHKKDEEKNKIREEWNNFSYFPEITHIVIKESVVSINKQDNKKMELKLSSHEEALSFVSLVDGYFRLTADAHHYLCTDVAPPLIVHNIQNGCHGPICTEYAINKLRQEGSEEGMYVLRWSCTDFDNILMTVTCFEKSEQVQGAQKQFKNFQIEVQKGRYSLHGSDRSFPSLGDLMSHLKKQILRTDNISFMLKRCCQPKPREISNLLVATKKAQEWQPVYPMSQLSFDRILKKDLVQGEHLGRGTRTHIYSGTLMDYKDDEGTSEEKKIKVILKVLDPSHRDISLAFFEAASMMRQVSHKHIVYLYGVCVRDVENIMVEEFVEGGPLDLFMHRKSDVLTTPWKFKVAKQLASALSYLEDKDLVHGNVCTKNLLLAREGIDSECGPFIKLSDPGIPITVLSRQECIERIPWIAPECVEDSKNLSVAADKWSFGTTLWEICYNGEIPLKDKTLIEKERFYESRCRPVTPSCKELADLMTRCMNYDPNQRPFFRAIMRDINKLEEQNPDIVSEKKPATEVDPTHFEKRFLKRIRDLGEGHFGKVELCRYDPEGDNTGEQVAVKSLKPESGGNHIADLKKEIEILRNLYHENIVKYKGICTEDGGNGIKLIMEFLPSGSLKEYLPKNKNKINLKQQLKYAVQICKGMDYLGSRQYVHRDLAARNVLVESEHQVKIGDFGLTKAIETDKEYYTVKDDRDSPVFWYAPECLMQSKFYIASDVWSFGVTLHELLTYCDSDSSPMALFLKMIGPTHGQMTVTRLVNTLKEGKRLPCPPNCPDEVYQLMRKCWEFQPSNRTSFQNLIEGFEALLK
The target in assay [12] is T3, Tyrosine-protein kinase JAK3 (Homo sapiens, UniProt P52333).
T3 sequence (P52333 whole entry): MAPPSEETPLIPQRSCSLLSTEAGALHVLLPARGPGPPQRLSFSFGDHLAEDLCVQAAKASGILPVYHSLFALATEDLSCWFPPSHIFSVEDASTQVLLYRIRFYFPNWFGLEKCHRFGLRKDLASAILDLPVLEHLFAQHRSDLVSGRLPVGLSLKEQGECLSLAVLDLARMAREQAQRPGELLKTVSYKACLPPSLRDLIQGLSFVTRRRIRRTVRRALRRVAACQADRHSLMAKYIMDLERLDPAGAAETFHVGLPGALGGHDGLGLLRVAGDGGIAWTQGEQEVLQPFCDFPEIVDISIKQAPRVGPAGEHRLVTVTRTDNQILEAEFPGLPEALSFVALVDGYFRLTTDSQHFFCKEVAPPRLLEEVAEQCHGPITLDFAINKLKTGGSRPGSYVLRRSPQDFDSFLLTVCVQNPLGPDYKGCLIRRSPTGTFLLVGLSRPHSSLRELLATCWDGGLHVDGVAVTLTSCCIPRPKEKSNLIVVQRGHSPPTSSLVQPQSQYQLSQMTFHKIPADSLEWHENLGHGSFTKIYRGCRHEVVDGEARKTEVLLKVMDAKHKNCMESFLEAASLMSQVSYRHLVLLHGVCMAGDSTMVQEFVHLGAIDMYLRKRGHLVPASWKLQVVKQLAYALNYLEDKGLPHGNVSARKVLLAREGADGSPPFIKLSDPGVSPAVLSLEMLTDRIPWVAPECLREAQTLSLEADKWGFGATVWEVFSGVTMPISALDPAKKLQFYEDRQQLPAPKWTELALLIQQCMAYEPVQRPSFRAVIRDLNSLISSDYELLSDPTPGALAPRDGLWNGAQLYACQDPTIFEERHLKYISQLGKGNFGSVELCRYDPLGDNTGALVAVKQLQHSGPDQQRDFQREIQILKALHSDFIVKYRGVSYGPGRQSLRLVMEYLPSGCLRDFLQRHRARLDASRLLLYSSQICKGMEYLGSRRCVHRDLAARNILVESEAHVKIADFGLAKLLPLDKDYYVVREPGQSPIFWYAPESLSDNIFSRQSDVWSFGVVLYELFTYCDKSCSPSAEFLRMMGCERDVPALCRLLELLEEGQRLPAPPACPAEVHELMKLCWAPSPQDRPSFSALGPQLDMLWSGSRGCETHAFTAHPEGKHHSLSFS
Description: Inhibition of JAK3 (unknown origin) preincubated for 60 mins followed by reagent A addition and measured after 60 mins in presence of ATP by using microplate reader method.

The target of assay [13] is Non-receptor tyrosine-protein kinase TYK2 (Homo sapiens, UniProt P29597). Description: Inhibition of TYK2 (unknown origin) incubated for 40 min in presence of ATP by microplate reader analysis.
Chain of Non-receptor tyrosine-protein kinase TYK2 (P29597 whole entry): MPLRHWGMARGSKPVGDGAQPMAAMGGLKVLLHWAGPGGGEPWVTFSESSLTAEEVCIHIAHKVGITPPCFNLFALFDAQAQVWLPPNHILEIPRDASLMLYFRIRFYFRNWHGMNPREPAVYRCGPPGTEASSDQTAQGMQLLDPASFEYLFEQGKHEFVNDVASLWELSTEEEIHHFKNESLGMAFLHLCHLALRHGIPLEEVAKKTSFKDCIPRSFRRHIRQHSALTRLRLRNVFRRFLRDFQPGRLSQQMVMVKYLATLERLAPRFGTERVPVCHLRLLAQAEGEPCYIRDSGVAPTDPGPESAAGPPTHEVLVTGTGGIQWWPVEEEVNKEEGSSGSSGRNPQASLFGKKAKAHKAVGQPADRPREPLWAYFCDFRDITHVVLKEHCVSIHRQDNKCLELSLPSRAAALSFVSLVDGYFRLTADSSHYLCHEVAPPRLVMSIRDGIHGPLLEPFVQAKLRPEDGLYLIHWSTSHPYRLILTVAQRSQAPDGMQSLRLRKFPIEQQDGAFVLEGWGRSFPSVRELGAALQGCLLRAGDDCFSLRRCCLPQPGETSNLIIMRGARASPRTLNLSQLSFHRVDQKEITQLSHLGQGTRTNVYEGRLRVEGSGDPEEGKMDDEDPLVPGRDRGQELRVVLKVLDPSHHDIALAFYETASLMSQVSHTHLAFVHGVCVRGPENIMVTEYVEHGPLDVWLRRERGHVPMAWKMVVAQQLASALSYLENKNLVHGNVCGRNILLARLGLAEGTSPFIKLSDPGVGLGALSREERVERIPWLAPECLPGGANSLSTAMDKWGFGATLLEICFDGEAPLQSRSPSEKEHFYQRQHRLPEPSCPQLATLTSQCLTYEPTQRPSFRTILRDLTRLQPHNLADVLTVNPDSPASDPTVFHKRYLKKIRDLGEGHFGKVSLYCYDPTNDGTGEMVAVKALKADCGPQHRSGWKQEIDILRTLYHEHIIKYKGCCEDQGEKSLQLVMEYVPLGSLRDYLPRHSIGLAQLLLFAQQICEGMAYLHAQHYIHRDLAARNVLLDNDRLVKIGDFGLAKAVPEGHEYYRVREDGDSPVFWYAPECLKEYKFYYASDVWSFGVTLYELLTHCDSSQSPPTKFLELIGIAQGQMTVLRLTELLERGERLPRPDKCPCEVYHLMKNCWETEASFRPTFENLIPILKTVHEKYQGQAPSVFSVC
For assay [14], the system named is 4T1. Description: cells. It counts as functional, cell-based. Particulars: Mus musculus, 4T1, 72 h.
Assay [15] relates to MDA-MB-231. Description: cells. Type of assay: functional, cell-based. The following applies: Homo sapiens, MDA-MB-231, 72 h.
Assay [16] concerns BT-549. The assay can be described thus: cells. The following applies: Homo sapiens, BT-549, 72 h. It counts as functional, cell-based.
Assay [17] concerns MDA-MB-468. The assay can be described thus: cells. Type of assay: functional, cell-based. The following applies: Homo sapiens, MDA-MB-468, 72 h.
Assay [18] has as its system CAL-51. The assay can be described thus: cells. It counts as functional, cell-based. The following applies: Homo sapiens, CAL-51, 72 h.
For assay [19], the system named is MDA-MB-231. Description: Induction of apoptosis in human MDA-MB-231 cells assessed as early apoptotic cells at 10 uM measured after 48 hrs by annexin V-FITC/propidium iodide staining based flow cytometry (reference value: 3.09%). It counts as functional.
Assay [20] has as its system MDA-MB-231. Description: Induction of apoptosis in human MDA-MB-231 cells assessed as necrotic cells at 10 uM measured after 48 hrs by annexin V-FITC/propidium iodide staining based flow cytometry (reference value: 5.38%). Type of assay: functional.
Assay [21] concerns 4T1. The assay can be described thus: Induction of apoptosis in mouse 4T1 cells assessed as viable cells at 10 uM measured after 48 hrs by annexin V-FITC/propidium iodide staining based flow cytometry (reference value: 89.5%). Type of assay: functional.
Assay [22] has as its system 4T1. The assay can be described thus: Induction of apoptosis in mouse 4T1 cells assessed as early apoptotic cells at 10 uM measured after 48 hrs by annexin V-FITC/propidium iodide staining based flow cytometry (reference value: 1.12%). It counts as functional.
For assay [23], the system named is 4T1. Description: Induction of apoptosis in mouse 4T1 cells assessed as late apoptotic cells at 10 uM measured after 48 hrs by annexin V-FITC/propidium iodide staining based flow cytometry (reference value: 4.99%). Type of assay: functional.
Assay [24] deals with 4T1. Description: Induction of apoptosis in mouse 4T1 cells assessed as necrotic cells at 10 uM measured after 48 hrs by annexin V-FITC/propidium iodide staining based flow cytometry (reference value: 4.35%). It counts as functional.
The test system of assay [25] is MDA-MB-231. Type of assay: functional, Mus musculus. Particulars: dose 100 mg/kg; time 14 day.
The target of assay [26] is T4, Protein deacetylase HDAC6 (Homo sapiens) (UniProt Q9UBN7).
T4 sequence (whole entry): T2 sequence (Q9UBN7 whole entry)
Description: Inhibition of HDAC6 (unknown origin) at 10 uM incubated for 60 min by microplate reader analysis relative to control.

Broadly, the IC50 is the point on the concentration scale where inhibition reaches its midpoint.

T1 sequence (O60674 whole entry): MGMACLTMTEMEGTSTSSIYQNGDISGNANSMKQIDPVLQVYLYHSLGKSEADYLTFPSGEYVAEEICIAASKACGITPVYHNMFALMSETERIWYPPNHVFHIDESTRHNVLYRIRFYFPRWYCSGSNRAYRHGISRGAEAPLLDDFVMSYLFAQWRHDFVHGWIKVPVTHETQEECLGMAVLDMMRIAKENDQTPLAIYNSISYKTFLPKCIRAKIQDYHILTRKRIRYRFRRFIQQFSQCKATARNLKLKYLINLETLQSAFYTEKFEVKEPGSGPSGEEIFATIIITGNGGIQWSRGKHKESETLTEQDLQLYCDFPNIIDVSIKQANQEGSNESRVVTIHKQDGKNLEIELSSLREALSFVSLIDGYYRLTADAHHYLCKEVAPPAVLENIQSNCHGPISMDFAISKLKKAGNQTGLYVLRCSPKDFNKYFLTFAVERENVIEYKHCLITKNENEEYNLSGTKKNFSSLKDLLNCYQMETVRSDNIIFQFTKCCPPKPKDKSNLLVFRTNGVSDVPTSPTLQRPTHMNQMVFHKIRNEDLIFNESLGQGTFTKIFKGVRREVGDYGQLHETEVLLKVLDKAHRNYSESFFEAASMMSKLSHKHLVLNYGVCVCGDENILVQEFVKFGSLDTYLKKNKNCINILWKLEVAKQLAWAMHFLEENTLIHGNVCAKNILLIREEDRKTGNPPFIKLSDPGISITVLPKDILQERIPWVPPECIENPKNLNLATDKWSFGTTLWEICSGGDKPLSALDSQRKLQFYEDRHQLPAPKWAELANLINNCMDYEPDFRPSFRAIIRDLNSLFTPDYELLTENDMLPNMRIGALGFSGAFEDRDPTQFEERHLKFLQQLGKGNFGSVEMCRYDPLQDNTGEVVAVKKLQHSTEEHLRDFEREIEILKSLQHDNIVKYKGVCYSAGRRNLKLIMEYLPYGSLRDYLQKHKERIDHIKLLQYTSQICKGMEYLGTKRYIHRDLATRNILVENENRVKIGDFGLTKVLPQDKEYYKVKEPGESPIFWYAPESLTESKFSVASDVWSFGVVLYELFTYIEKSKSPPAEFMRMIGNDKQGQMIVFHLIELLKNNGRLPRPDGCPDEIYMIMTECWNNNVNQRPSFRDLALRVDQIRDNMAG

With `O=C(CCCCCCC(=O)Nc1ccccc1)NO` [VORINOSTAT], the Activity in assay [1] stood at 57.3%; in assay [2], 25.8%; in assay [3], 65.2%; in assay [4], 28.6%; in assay [5] it was 4.98%; in assay [6] it was 1.23%. Besides, in assay [7], the inhibition entry was “inactive”.

With `O=C(CCCCCCn1cc(Nc2ncc3ccn(Cc4cccc(F)c4)c3n2)cn1)NO`, the IC50 came to 15.7 nM in assay [8]; 14.7 nM in assay [9]; 92.1 nM in [10]; 19.9 nM in assay [11]; 16.1 nM in assay [12]; 21.7 nM in assay [13]. Moreover, the half-inhibitory concentration (IC50) was determined as 3720 nM in assay [14]; 3940 nM in assay [15]; 3020 nM in [16]; 2450 nM in [17]; 1280 nM in assay [18].

For `N#CC[C@H](C1CCCC1)n1cc(-c2ncnc3[nH]ccc23)cn1` [RUXOLITINIB], the Activity in assay [19] is on record as 6.09%; in [20], 6.09%; in assay [21] it was 89%; in assay [22] it was 2.04%; in assay [23] it was 4%; in [24], 4.98%. This compound showed a TGI in assay [25] of 12%. In addition, the inhibition result in assay [26] was “inactive”.
